# From patent US7271165B2, “Rifamycin analogs and uses thereof” (priority 2003, dated 2007)
# How the values were obtained:
# E coli = experiment: MIC assay, E coli; type: cell-based
# H. flu = type: cell-based, H. influenza; details: H. flu
# S. pneumo. = experiment: MIC assay, S. pneumo.; type: cell-based, Streptococcus pneumoniae
# S. aureus = experiment: MIC assay, S. aureus; type: cell-based, Staphylococcus aureus
# E. faecalis = experiment: MIC assay, E. faecalis; type: cell-based, Enterococcus faecalis
compound,measurement,setting,value
3′-hydroxy-5′-(4-ethylcarbamyl-1-piperidinyl)benzoxazinorifamycin [Compound 1],MIC (μg/mL) E coli,E coli,>8 µg/mL
same,MIC (μg/mL) H. flu,H. flu,2 µg/mL
same,MIC (μg/mL) S. pneumo.,S. pneumo.,0.00025 µg/mL
same,MIC (μg/mL) S. aureus,S. aureus,0.008 µg/mL
same,MIC (μg/mL) E. faecalis,E. faecalis,2 µg/mL
"25-O-deacetyl-5′-[(8aR)octahydropyrrolo[1,2-a]pyrazin-2-yl]benzthiazinorifamycin [Compound 78]",MIC (μg/mL) E coli,E coli,4 µg/mL
same,MIC (μg/mL) H. flu,H. flu,0.12 µg/mL
same,MIC (μg/mL) S. pneumo.,S. pneumo.,0.00012 µg/mL
same,MIC (μg/mL) S. aureus,S. aureus,0.002 µg/mL
same,MIC (μg/mL) E. faecalis,E. faecalis,0.12 µg/mL
"CCOC(=O)N1CCCC2CN(c3cc(O)c4nc5c6c7c8c(C)c(O)c6c(=O)c(c-5oc4c3)NC(=O)C(C)=CC=CC(C)C(O)C(C)C(O)C(C)C(O)C(C)C(OC)C=COC(C)(O8)C7=O)CC21 (mixture of isomers) [Compound 42, 25-O-deacetyl-3′-hydroxy-5′-[1-ethylcarbamyl-(4aR,7aR)-octahydro-6H-pyrrolo [3,4-b]pyridin-6-yl]benzoxazinorifamycin]",MIC (μg/mL) E coli,E coli,8 µg/mL
same,MIC (μg/mL) H. flu,H. flu,0.5 µg/mL
same,MIC (μg/mL) S. pneumo.,S. pneumo.,0.00012 µg/mL
same,MIC (μg/mL) S. aureus,S. aureus,0.008 µg/mL
same,MIC (μg/mL) E. faecalis,E. faecalis,2 µg/mL
"CCOC(=O)N1CCCC2CN(c3cc(O)c4nc5c6c7c8c(C)c(O)c6c(=O)c(c-5oc4c3)NC(=O)C(C)=CC=CC(C)C(O)C(C)C(O)C(C)C(OC(C)=O)C(C)C(OC)C=COC(C)(O8)C7=O)CC21 (single isomer, unassigned) [Compound 40]",MIC (μg/mL) E coli,E coli,>8 µg/mL
same,MIC (μg/mL) H. flu,H. flu,0.5 µg/mL
same,MIC (μg/mL) S. pneumo.,S. pneumo.,0.008 µg/mL
same,MIC (μg/mL) S. aureus,S. aureus,0.06 µg/mL
same,MIC (μg/mL) E. faecalis,E. faecalis,1 µg/mL
"COC1C=COC2(C)Oc3c(C)c(O)c4c(=O)c(c5oc6cc(N7CC8C(C7)C8NC(=O)OCC[Si](C)(C)C)cc(O)c6nc-5c4c3C2=O)NC(=O)C(C)=CC=CC(C)C(O)C(C)C(O)C(C)C(OC(C)=O)C1C [Compound 2, 3′-hydroxy-5′-[6-(2-trimethylsilyl)ethylcarbamyl-(1R,5S)-3-azabicyclo[3.1.0]hex-3-yl]benzoxazinorifamycin]",MIC (μg/mL) E coli,E coli,>8 µg/mL
same,MIC (μg/mL) H. flu,H. flu,>8 µg/mL
same,MIC (μg/mL) S. pneumo.,S. pneumo.,0.03 µg/mL
same,MIC (μg/mL) S. aureus,S. aureus,1 µg/mL
same,MIC (μg/mL) E. faecalis,E. faecalis,>8 µg/mL
"CCOC(=O)NC1CCN(c2cc(O)c3nc4c5c6c7c(C)c(O)c5c(=O)c(c-4oc3c2)NC(=O)/C(C)=C\C=C\[C@H](C)[C@H](O)[C@@H](C)[C@@H](O)[C@@H](C)[C@H](O)[C@H](C)[C@@H](OC)/C=C/O[C@@](C)(O7)C6=O)CC1 [Compound 3, 25-O-deacetyl-3′-hydroxy-5′-(4-ethylcarbamyl-1-piperidinyl)benzoxazinorifamycin]",MIC (μg/mL) E coli,E coli,4 µg/mL
same,MIC (μg/mL) H. flu,H. flu,0.25 µg/mL
same,MIC (μg/mL) S. pneumo.,S. pneumo.,0.0005 µg/mL
same,MIC (μg/mL) S. aureus,S. aureus,0.03 µg/mL
same,MIC (μg/mL) E. faecalis,E. faecalis,0.12 µg/mL
"COC1C=COC2(C)Oc3c(C)c(O)c4c(=O)c(c5oc6cc(N7CC8C(N)C8C7)cc(O)c6nc-5c4c3C2=O)NC(=O)C(C)=CC=CC(C)C(O)C(C)C(O)C(C)C(OC(C)=O)C1C [Compound 4, 3′-hydroxy-5′-[6-amino-(1R,5S)-3-azabicyclo[3.1.0]hex-3-yl]benzoxazinorifamycin]",MIC (μg/mL) E coli,E coli,>8 µg/mL
same,MIC (μg/mL) H. flu,H. flu,0.25 µg/mL
same,MIC (μg/mL) S. pneumo.,S. pneumo.,0.00025 µg/mL
same,MIC (μg/mL) S. aureus,S. aureus,0.03 µg/mL
same,MIC (μg/mL) E. faecalis,E. faecalis,0.5 µg/mL
"CO[C@H]1/C=C/O[C@@]2(C)Oc3c(C)c(O)c4c(=O)c(c5oc6cc(N7C[C@@H]8CCCN[C@@H]8C7)cc(O)c6nc-5c4c3C2=O)NC(=O)/C(C)=C\C=C\[C@H](C)[C@H](O)[C@@H](C)[C@@H](O)[C@@H](C)[C@H](OC(C)=O)[C@@H]1C [Compound 5, 3′-hydroxy-5′-[(4aS,7aS)-octahydro-6H-pyrrolo[3,4-b]pyridin-6-yl]benzoxazinorifamycin]",MIC (μg/mL) E coli,E coli,8 µg/mL
same,MIC (μg/mL) H. flu,H. flu,2 µg/mL
same,MIC (μg/mL) S. pneumo.,S. pneumo.,0.00025 µg/mL
same,MIC (μg/mL) S. aureus,S. aureus,0.015 µg/mL
same,MIC (μg/mL) E. faecalis,E. faecalis,0.5 µg/mL
"CO[C@H]1/C=C/O[C@@]2(C)Oc3c(C)c(O)c4c(=O)c(c5oc6cc(N7C[C@@H]8CCCN[C@@H]8C7)cc(O)c6nc-5c4c3C2=O)NC(=O)/C(C)=C\C=C\[C@H](C)[C@H](O)[C@@H](C)[C@@H](O)[C@@H](C)[C@H](O)[C@@H]1C [Compound 7, 25-O-deacetyl-3′-hydroxy-5′-[(4aS,7aS)-octahydro-6H-pyrrolo[3,4-b]pyridin-6-yl]benzoxazinorifamycin]",MIC (μg/mL) E coli,E coli,>8 µg/mL
same,MIC (μg/mL) H. flu,H. flu,4 µg/mL
same,MIC (μg/mL) S. pneumo.,S. pneumo.,0.004 µg/mL
same,MIC (μg/mL) S. aureus,S. aureus,0.12 µg/mL
same,MIC (μg/mL) E. faecalis,E. faecalis,4 µg/mL
"CO[C@H]1/C=C/O[C@@]2(C)Oc3c(C)c(O)c4c(=O)c(c5oc6cc(N7CCC(N8CCOCC8)CC7)cc(O)c6nc-5c4c3C2=O)NC(=O)/C(C)=C\C=C\[C@H](C)[C@H](O)[C@@H](C)[C@@H](O)[C@@H](C)[C@H](OC(C)=O)[C@@H]1C [Compound 9, 3′-hydroxy-5′-(4-morpholinyl-1-piperidinyl)benzoxazinorifamycin]",MIC (μg/mL) E coli,E coli,8 µg/mL
same,MIC (μg/mL) H. flu,H. flu,2 µg/mL
same,MIC (μg/mL) S. pneumo.,S. pneumo.,0.001 µg/mL
same,MIC (μg/mL) S. aureus,S. aureus,0.015 µg/mL
same,MIC (μg/mL) E. faecalis,E. faecalis,2 µg/mL
"CO[C@H]1/C=C/O[C@@]2(C)Oc3c(C)c(O)c4c(=O)c(c5oc6cc(N7CC8CCC(C7)N8)cc(O)c6nc-5c4c3C2=O)NC(=O)/C(C)=C\C=C\[C@H](C)[C@H](O)[C@@H](C)[C@@H](O)[C@@H](C)[C@H](OC(C)=O)[C@@H]1C [Compound 10, 3′-hydroxy-5′-(3,8-diazabicyclo[3.2.1]octan-3-yl)benzoxazinorifamycin]",MIC (μg/mL) E coli,E coli,>8 µg/mL
same,MIC (μg/mL) H. flu,H. flu,2 µg/mL
same,MIC (μg/mL) S. pneumo.,S. pneumo.,0.00012 µg/mL
same,MIC (μg/mL) S. aureus,S. aureus,0.008 µg/mL
same,MIC (μg/mL) E. faecalis,E. faecalis,1 µg/mL
COC1C=COC2(C)Oc3c(C)c(O)c4c(=O)c(c5oc6cc(N7CC(C)CC(C)C7)cc(O)c6nc-5c4c3C2=O)NC(=O)C(C)=CC=CC(C)C(O)C(C)C(O)C(C)C(O)C1C (centres unmarked) [Compound 113],MIC (μg/mL) H. flu,H. flu,0.12 µg/mL
same,MIC (μg/mL) S. pneumo.,S. pneumo.,0.002 µg/mL
same,MIC (μg/mL) S. aureus,S. aureus,0.008 µg/mL
same,MIC (μg/mL) E. faecalis,E. faecalis,1 µg/mL
CCc1cc(C)cc2nc3c4c5c6c(C)c(O)c4c(=O)c(c-3oc12)NC(=O)C(C)=CC=CC(C)C(O)C(C)C(O)C(C)C(O)C(C)C(OC)C=COC(C)(O6)C5=O (centres unmarked) [Compound 130],MIC (μg/mL) E coli,E coli,>8 µg/mL
same,MIC (μg/mL) S. pneumo.,S. pneumo.,0.25 µg/mL
same,MIC (μg/mL) E. faecalis,E. faecalis,1 µg/mL
